Entries after “also recorded” stand apart in the source; their conditions may differ.
What was measured:
S. mutans UA159 biofilms = test: Fluorescence microscopy of S. mutans UA159 biofilms (Syto-9, Cascade Blue-dextran, propidium iodide); type: cell-based, Streptococcus mutans; details: 16 h
Procedure: FIGS. 1.6A-E illustrate the biofilm inhibitory activities of compound HA5. FIG. 1.6A illustrates that S. mutans UA159 were co-incubated with HA5 at various concentrations and biofilm formation was measured at OD562 using the crystal violet protocol. FIG. 1.6B illustrates Gtfs precipitated from S. mutans culture were co-incubated with HA5 at various concentrations and the glucan production was quantified using cascade blue staining and subsequent image processing with ImageJ. FIG. 1.6C illustrates representative fluorescence microscopy images of UA159 biofilms after 16 h of treatment with various concentrations of HA5. Bacterial cells were stained with Syto-9 (green, panel I); glucans were stained with Cascade Blue-dextran conjugated dye (blue, panel II); eDNA was stained with propidium iodide (red, panel III) and a merged image of all three staining images (panel IV). FIG. 1.6D illustrates S. mutans UA159, S. gordonii DL1 and S. sanguinis SK36 were co-incubated with HA5 at 50 μM and 100 μM and their growth were measured at OD470. FIG. 1.6E illustrates the chemical structure of HA5. Each of the biofilm, glucan and growth assays were conducted in triplicate and statistical significance was tested with one-way ANOVA. p<0.0001. […]
HA5 inhibits S. mutans UA159 biofilms, glucan production and eDNA levels. The antibiofilm activities of HA5 were further investigated by fluorescence microscopy imaging. […] In addition, propidium iodide was used to determine the presence of extracellular DNA (eDNA) in S. mutans biofilms. […] These findings reaffirm that HA5 inhibited S. mutans biofilms by preventing the synthesis of glucans and minimizing the presence of eDNA, two integral biofilm matrix elements crucial for S. mutans biofilm formation.
In addition, propidium iodide was used to determine the presence of extracellular DNA (eDNA) in S. mutans biofilms. […] These findings reaffirm that compound HA6 inhibited S. mutans biofilms by preventing the synthesis of glucans and minimizing the presence of eDNA, two integral biofilm matrix elements crucial for S. mutans biofilm formation.
Prior to in vivo evaluations, the biofilm inhibitory activities of PEHA5 were investigated. […] In addition, propidium iodide was used to determine the presence of eDNA in S. mutans biofilms. […] The effects of unloaded polymersome vesicles on S. mutans biofilm were compared with the control (1% DMSO) and the biofilm inhibitory activities of PEHA5 and HA5 at a single dose 50 μM concentration. […] In addition, the effect of PEHA5 on the planktonic growth of two commensal Streptococci, S. gordonii and S. Sanguinis were compared with the control (1% DMSO) and HA5 at a single treatment dose of 50 μM.
The biofilm inhibitory activities of PEHA6 were investigated. […] In addition, propidium iodide was used to determine the presence of eDNA in S. mutans biofilms. […] The effects of PEHA6 on S. mutans biofilm were compared with the control (1% DMSO) and the biofilm inhibitory activities of HA5 and HA6 side by side at a single dose, 50 μM concentration. […] In addition, the effect of PEHA6 on the planktonic growth of S. mutans was compared with HA5, HA6 at 50 μM.

S. sanguinis SK36 = test: Planktonic growth, S. sanguinis SK36 (OD470); type: cell-based, Streptococcus sanguinis
Procedure: The bacterial strains, S. mutans UA159, S. gordonii DL1, and S. sanguinis SK36 were inoculated statically at 37° C. under 5% CO2 in Todd Hewitt Broth (THB) for 24 h. The cultures were then diluted with fresh THB (1:5) and reinoculated until optical density at 470 nm (OD470) reached 1. The optical density was read using BioTek 800TS microplate reader at 470 nm for bacterial growth and 562 nm for biofilm stained with crystal violet. Data was plotted in Graphpad Prism9.
(§1) S. mutans, S. gordonii, and S. sanguinis growth assays. Effects of compounds on S. mutans and commensal bacterial growth were evaluated using the growth assay as described^69. S. mutans UA159, S. gordonii DL1, S. sanguinis SK36, cultures were grown for 24 h under 5% CO2 at 37° C. These cultures were then reinoculated with fresh THB (1:5) until OD470=1 when the bacteria were ready to be used. Different concentrations of the inhibitor were assayed in chemically defined media (CDM) with 1% of the bacteria, 1% sucrose and 1% DMSO in 96 well plates. The 96 well plates were incubated under 5% CO2 at 37° C. for 16 h. Growth of the bacteria was read after 16 h at OD470. Each assay was carried out at least in triplicate.
All bacterial strains (S. mutans UA159, S. gordonii DL1, and S. sanguinis SK36) were inoculated statically at 37° C. under 5% CO2 environment in Todd Hewitt Broth (THB) for 24 h^[61]. The cultures were then diluted with fresh THB (1:5) and reinoculated until the optical density at 470 nm reaches 1. The optical density was read using BioTek 800 TS absorbance reader at 470 nm for bacterial growth and 562 nm for biofilm stained with crystal violet. Data was plotted in Prism 10.0.2.
as §1, with “Effects” for “S. mutans, S. gordonii, and S. sanguinis growth assays. Effects”, “PEHA5, PEHA6, HA5 or HA6” for “compounds”, “described^[62].” for “described^69.”, “PEHA5, PEHA6, HA5 or HA6” for “inhibitor”, “CDM” for “chemically defined media (CDM)”

SMILES	Syto-9 stained bacterial cells within biofilms (S. mutans UA159 biofilms; 5 μM)	eDNA (propidium iodide) (S. mutans UA159 biofilms; 5 μM)	glucans (Cascade Blue-dextran) (S. mutans UA159 biofilms; 5 μM)	Syto-9 stained bacterial cells within biofilms (S. mutans UA159 biofilms; 50 μM)	eDNA (propidium iodide) (S. mutans UA159 biofilms; 50 μM)	glucans (Cascade Blue-dextran) (S. mutans UA159 biofilms; 50 μM)	planktonic growth of S. sanguinis (S. sanguinis SK36; 25 μM)	growth of S. sanguinis (S. sanguinis SK36; 50 μM and 100 μM (100 μM))	growth of S. sanguinis (S. sanguinis SK36; at biofilm inhibiting doses)	Syto-9 stained bacterial cells within biofilms (S. mutans UA159 biofilms; 15 μM)	eDNA (propidium iodide) (S. mutans UA159 biofilms; 15 μM)	glucans (Cascade Blue-dextran) (S. mutans UA159 biofilms; 15 μM)	Syto-9 stained bacterial cells within biofilms (S. mutans UA159 biofilms; 30 μM)	eDNA (propidium iodide) (S. mutans UA159 biofilms; 30 μM)	glucans (Cascade Blue-dextran) (S. mutans UA159 biofilms; 30 μM)	growth of S. sanguinis (S. sanguinis SK36; 25 μM and 50 μM)
O=C1/C(=C/c2cc(O)c(O)cc2O)Oc2ccccc21 [HA5, 2-[(2′,4′,5′-Trihydroxyphenyl)methylidene]-2,3-dihydro-1-benzofuran-3-one]	significant reduction in biofilms	noticeable reduction of eDNA	significantly reduced	complete inhibition	almost complete absence of eDNA	no glucan formation was evident	did not affect the planktonic growth	did not inhibit the growth; also recorded: does not inhibit the growth	without affecting the growth							
O=C1/C(=C/c2cc(O)c(O)c(O)c2)Oc2ccccc21 [HA6, 2-[(3′,4′,5′-Trihydroxyphenyl)methylidene]-2,3-dihydro-1-benzofuran-3-one]									without affecting the growth	significant reduction in biofilms	noticeable reduction of eDNA	significantly reduced	complete inhibition	almost complete absence of eDNA	no glucan formation was evident	did not inhibit the growth

— patent publication US20260315431A1, “NANOMATERIAL ENCAPSULATED BIOFILM INHIBITORS FOR DENTAL CARIES TREATMENT” (THE UAB RESEARCH FOUNDATION, priority 2023, published 2026)
